Consider 10 molecules from ChEMBL document CHEMBL1201862, “PubChem BioAssay data set” (2004).

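Protocol summary: plate cells (96-well), add compound at 5 concentrations, incubate 48 h, interpolate endpoints linearly. GI50 marks 50% less growth.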 Activity calls are given as the source filed them. Cut-off read from the data, not from the text of the source: active = GI50 up to about 1.1 µM and inactive = higher.

Some test systems named below: TK-10; HL-60; MDA-N; MDA-MB-231; SF-268; ACHN; HOP-92; Hs-578T; MOLT-4; HT-29; SR; RPMI-8226; SK-OV-3; HOP-62; MDA-MB-435; UACC-257; OVCAR-8; SK-MEL-5; OVCAR-3; SF-539.
What all share (test): NCI tumour cell line growth inhibition, 48 h

Take `COC(=O)C1=C(OC(=O)/C=C/c2ccc(Cl)cc2)C(C(=O)OC)[C@]2(O)[C@@H](C(=O)OC)[C@H]1C[C@@H](c1ccccc1)[C@@H]2C(=O)OC` (stereo not given in full): the GI50 is > 30.3 µM (inactive) in the assay with TK-10; 3.81 µM (inactive) in the assay with HL-60; 3.58 µM (inactive) in the assay on MDA-N; 12.4 µM (inactive) in the assay with MDA-MB-231; 4.66 µM (inactive) in the assay with SF-268; 4.74 µM (inactive) with ACHN. Moreover, the GI50 in the assay with HOP-92 was 2.58 µM (inactive); in the assay with Hs-578T it was 7.71 µM (inactive); in the assay on MOLT-4, 3.76 µM (inactive); with HT-29, 7.74 µM (inactive); with SR it was 4.5 µM (inactive); with RPMI-8226, 3.92 µM (inactive). Further, the GI50 was 29.9 µM (inactive) in the assay on SK-OV-3; > 57.4 µM (inactive) with HOP-62; 3.82 µM (inactive) in the assay with MDA-MB-435; 26.2 µM (inactive) in the assay with UACC-257; 3.95 µM (inactive) with OVCAR-8; 4.55 µM (inactive) in the assay on SK-MEL-5. Besides, the values for the GI50 with OVCAR-3 and in the assay with SF-539 were 7.5 µM (inactive) and 4.68 µM (inactive), respectively.
Consider `SC1=C2CCCCCC2=NC2(CCCCCC2)S1`, for which the GI50 in the assay on TK-10 is 24.7 µM (inactive); in the assay on HL-60, 12.1 µM (inactive); in the assay on MDA-N, 33.4 µM (inactive); in the assay with MDA-MB-231 it was 36.6 µM (inactive); in the assay with SF-268 it was 41.7 µM (inactive); in the assay with ACHN, 13 µM (inactive). Further, the GI50 in the assay on HOP-92 is 21.1 µM (inactive); in the assay with Hs-578T it was 11.6 µM (inactive); with MOLT-4, 19 µM (inactive); in the assay on HT-29, 24.9 µM (inactive); in the assay with SR, 15.6 µM (inactive); in the assay with RPMI-8226, 18.5 µM (inactive). The GI50 in the assay on SK-OV-3 was 62.8 µM (inactive); in the assay on HOP-62, 31.7 µM (inactive); with MDA-MB-435 it was 30.5 µM (inactive); with UACC-257 it was 11 µM (inactive); in the assay with OVCAR-8, 28.3 µM (inactive); in the assay with SK-MEL-5 it was 11.2 µM (inactive). Further, the GI50 with OVCAR-3 is 20.5 µM (inactive); in the assay on SF-539, 35.1 µM (inactive).
On to `CC1=NN(c2nc(N)nc(/C(C#N)=C\C3COc4ccccc4C3=O)n2)C(C)(C)C1` (stereo not given), for which the GI50 in the assay on TK-10 was 27.6 µM (inactive); with HL-60, 0.0404 µM (active); in the assay with MDA-N, 18.9 µM (inactive); in the assay with MDA-MB-231, 30.1 µM (inactive); in the assay on SF-268, 21.1 µM (inactive); in the assay on ACHN it was 23.6 µM (inactive). The GI50 was 36.5 µM (inactive) in the assay with HOP-92; 24 µM (inactive) in the assay with Hs-578T; 21.8 µM (inactive) in the assay with MOLT-4; 26.5 µM (inactive) in the assay on HT-29; 17.6 µM (inactive) in the assay on SR; 17.7 µM (inactive) in the assay with RPMI-8226. Also, the GI50 in the assay on SK-OV-3 was 25.8 µM (inactive); in the assay with HOP-62 it was 32.7 µM (inactive); in the assay with MDA-MB-435, 32.1 µM (inactive); with UACC-257 it was 51.4 µM (inactive); with OVCAR-8, 25.6 µM (inactive); in the assay with SK-MEL-5, 18.7 µM (inactive). The GI50 in the assay with OVCAR-3 was 22.6 µM (inactive); with SF-539, 26.2 µM (inactive).
Consider `CCOC(=O)Cc1csc(NC(NC(=O)OCC)(C(=O)OCC)C(F)(F)F)n1` (stereo not given), for which the GI50 with TK-10, with HL-60, with MDA-N, with MDA-MB-231, with SF-268 and in the assay on ACHN was > 100 µM (inactive) each time. Moreover, the GI50 was 56.6 µM (inactive) in the assay with HOP-92; > 100 µM (inactive) in the assay on Hs-578T; > 100 µM (inactive) in the assay with MOLT-4; > 100 µM (inactive) with HT-29; > 100 µM (inactive) in the assay with SR; > 100 µM (inactive) in the assay on RPMI-8226. In addition, the GI50 in the assay with SK-OV-3, with HOP-62, in the assay on MDA-MB-435, with UACC-257, with OVCAR-8 and with SK-MEL-5 was > 100 µM (inactive) each time. Further, the GI50 in the assay on OVCAR-3 and in the assay on SF-539 was > 100 µM (inactive) each time.
As for `O=C1C2CCN(CC2)C1(CO)CO`, the GI50 with TK-10 is 17.3 µM (inactive); with HL-60 it was 38.7 µM (inactive); with MDA-N, 39.1 µM (inactive); in the assay on MDA-MB-231, 20.9 µM (inactive); in the assay on SF-268, > 100 µM (inactive); in the assay with ACHN it was 17.9 µM (inactive). Also, the GI50 was 22 µM (inactive) in the assay with HOP-92; 31.3 µM (inactive) with Hs-578T; 7.01 µM (inactive) with MOLT-4; 28 µM (inactive) in the assay with HT-29; 20 µM (inactive) in the assay on SR; 17.8 µM (inactive) with RPMI-8226. Further, the GI50 with SK-OV-3 was 60.7 µM (inactive); with HOP-62, > 88.5 µM (inactive); in the assay with MDA-MB-435 it was 61.5 µM (inactive); in the assay with UACC-257, 18.6 µM (inactive); in the assay with OVCAR-8, 28.1 µM (inactive); with SK-MEL-5, 47.4 µM (inactive). Moreover, the GI50 was 15.9 µM (inactive) in the assay on OVCAR-3 and 40.9 µM (inactive) with SF-539.
Regarding `CC(NNC(=O)c1ccncc1)c1ccccc1` (stereo not given), the GI50 with TK-10, in the assay on HL-60, in the assay with MDA-N, in the assay with MDA-MB-231, with SF-268 and with ACHN was > 100 µM (inactive) throughout. In addition, the GI50 in the assay on HOP-92, in the assay with Hs-578T, with MOLT-4, with HT-29, with SR and with RPMI-8226 was > 100 µM (inactive) each time. The GI50 in the assay on SK-OV-3, in the assay on HOP-62, with MDA-MB-435, with UACC-257, in the assay with OVCAR-8 and with SK-MEL-5 was > 100 µM (inactive) throughout. Also, the GI50 in the assay on OVCAR-3 and in the assay on SF-539 was > 100 µM (inactive) in each case.
As for `CCc1[nH]c(=O)nc(N)c1-c1ccc(N2CCCCC2)c([N+](=O)[O-])c1`, the GI50 is > 100 µM (inactive) with TK-10; 88.7 µM (inactive) with HL-60; > 100 µM (inactive) in the assay with MDA-N; 98.4 µM (inactive) in the assay on MDA-MB-231; > 100 µM (inactive) in the assay with SF-268; > 100 µM (inactive) with ACHN. The GI50 in the assay with HOP-92 is > 100 µM (inactive); with Hs-578T, 53.2 µM (inactive); in the assay with MOLT-4 it was > 100 µM (inactive); with HT-29 it was > 100 µM (inactive); in the assay on SR it was > 100 µM (inactive); in the assay with RPMI-8226, > 100 µM (inactive). The GI50 with SK-OV-3, in the assay with HOP-62, with MDA-MB-435, in the assay with UACC-257, in the assay on OVCAR-8 and in the assay with SK-MEL-5 was > 100 µM (inactive) throughout. Further, the GI50 in the assay on OVCAR-3 and in the assay with SF-539 was > 100 µM (inactive) throughout.
For the molecule `CN(CC(N)=O)C(=O)N(CCCl)N=O` [SARCNU], the GI50 with TK-10 was > 100 µM (inactive); with HL-60, > 100 µM (inactive); in the assay with MDA-N it was > 100 µM (inactive); in the assay on MDA-MB-231 it was > 100 µM (inactive); in the assay on SF-268 it was 27.2 µM (inactive); in the assay on ACHN, > 100 µM (inactive). In addition, the GI50 in the assay with HOP-92 was > 77.6 µM (inactive); in the assay with Hs-578T, > 100 µM (inactive); with MOLT-4, > 100 µM (inactive); in the assay on HT-29 it was > 100 µM (inactive); with SR, > 71.1 µM (inactive); in the assay on RPMI-8226, > 100 µM (inactive). Moreover, the GI50 with SK-OV-3 was > 83.9 µM (inactive); in the assay on HOP-62, > 100 µM (inactive); with MDA-MB-435 it was > 100 µM (inactive); in the assay on UACC-257, > 100 µM (inactive); in the assay with OVCAR-8 it was > 100 µM (inactive); in the assay with SK-MEL-5, > 100 µM (inactive). The GI50 was > 100 µM (inactive) in the assay on OVCAR-3 and 38.3 µM (inactive) in the assay with SF-539.
Regarding `O=C1c2cc(O)c(O)cc2O[C@H](c2ccc(O)c(O)c2)[C@H]1O`, the GI50 in the assay with TK-10, in the assay on HL-60, in the assay with MDA-N, in the assay with MDA-MB-231, in the assay with SF-268 and with ACHN was > 100 µM (inactive) in each case. For the same molecule, the GI50 in the assay with HOP-92, with Hs-578T, with MOLT-4, in the assay with HT-29, in the assay on SR and with RPMI-8226 was > 100 µM (inactive) in each case. Further, the GI50 in the assay with SK-OV-3 was > 100 µM (inactive); with HOP-62 it was 80.7 µM (inactive); in the assay on MDA-MB-435, > 100 µM (inactive); with UACC-257, 98.9 µM (inactive); with OVCAR-8, > 100 µM (inactive); in the assay with SK-MEL-5 it was > 100 µM (inactive). The GI50 in the assay with OVCAR-3 and in the assay with SF-539 was > 100 µM (inactive) each time.
In the case of `CCCCCCC(=O)O[C@H]1CC[C@H]2[C@@H]3CCC4C/C(=N/NC(=O)c5cccc6c(=O)c7ccccc7[nH]c56)C=C(C)[C@]4(C)[C@H]3CC[C@]12C` (stereo not given in full), the GI50 in the assay with TK-10, in the assay with HL-60, in the assay with MDA-N, in the assay with MDA-MB-231, with SF-268 and in the assay with ACHN was > 25 µM (inactive) throughout. For the same molecule, the GI50 in the assay on HOP-92, with Hs-578T, in the assay on MOLT-4, in the assay on HT-29, in the assay on SR and in the assay on RPMI-8226 was > 25 µM (inactive) in each case. Moreover, the GI50 in the assay with SK-OV-3, in the assay on HOP-62, in the assay on MDA-MB-435, in the assay with UACC-257, with OVCAR-8 and in the assay on SK-MEL-5 was > 25 µM (inactive) each time. Moreover, the GI50 with OVCAR-3 and in the assay with SF-539 was > 25 µM (inactive) each time.
